We go through 2 molecules from patent US7371779B2, “Synergistic compositions of N-acylhomoserine lactones and 4-quinolones” (The Secretary of State for Defense Science and Technology, priority 2001, dated 2008).

For one test, the system named is murine splenocytes. As to the kind of experiment: ConA mitogen-stimulated proliferation of murine splenocytes ([3H]-thymidine incorporation). The class given is cell-based, mouse (BALB/c). The conditions noted are these: ConA 1 μg/ml, 100,000 spleen cells, Experiment I; read-out: IC50 in inhibition of ConA induced murine splenocyte proliferation. The procedure:
(§1) Proliferation was assessed by the incorporation of [^3H]-thymidine into DNA. Eight-week-old female BALB/c mice were obtained from Harlan (Bicester, Oxon, UK) and given food and water ad libitum. Splenocyte suspensions were prepared by removing the spleens and placing them into RPMI 1640 medium. The spleens were forced through 70-μm-pore-size wire gauzes using the plunger from a 5-ml syringe to produce a single cell suspension. The cells were pelleted by centrifugation, and erythrocytes were lysed with 0.017 M Tris, 0.144 M ammonium chloride buffer, pH 7.2. Leucocytes were washed twice with RPMI 1640 medium with 2% (vol/vol) foetal calf serum (FCS) and resuspended in complete cell culture medium (CTCM) consisting of RPMI 1640 medium with 5% FCS, 2 mM L-glutamine, and 5×10^−5 M 2-mercaptoethanol. HSL compounds were tested at doubling down dilutions ranging from 1 mM to 0.1 μM in a final volume of 200 μl of CTCM, containing ConA (Sigma, Poole, UK) at 1 μg/ml and 100,000 spleen cells. Following incubation for 48 h at 37° C. in 5% CO2-air, 0.25 μCi [^3H]-thymidine (Amersham) in 10 μl volume made up in RPMI 1640 medium was added and the cells were incubated for a further 24 h. Cells were harvested onto fibreglass filters with a Packard filtermate harvester. After the addition of 25 μl of MicroScint-O (Packard) to each well the filters were counted with the Packard TopCount scintillation counter.
Mitogen (Concanavalin A) induced murine splenocyte proliferation was indicated by the incorporation of tritated thymidine into the DNA in the mouse spleen cells as shown by counts per minute using the scintillation counter. The inhibitory effect of an HSL compound being tested on cell proliferation was indicated by a reduction in counts per minute.
as §1, with “70 μm pore size” for “70-μm-pore-size”, “5 ml” for “5-ml”, “The title compound was” for “HSL compounds were”, “dilutions” for “dilutions ranging from 1 mM to 0.1 μM in a final volume of 200 μl of CTCM,”, “g/ml” for “μg/ml”, “COrair,” for “CO2-air,”
Mitogen (Concanavalin A) induced murine splenocyte proliferation was indicated by the incorporation of tritated thymidine into the DNA in the mouse spleen cells as shown by counts per minute using the scintillation counter. The inhibitory effect of the title compound being tested on cell proliferation was indicated by a reduction in counts per minute.

For another test, the system named is TNF-alpha. The test is described as follows: TNF-alpha production from LPS-stimulated human PBMC (sandwich ELISA). The class given is cell-based. Conditions: for pIC50: Experiment III, read-out: IC50 in inhibition of LPS induced production of TNF-α by human PBMC. The procedure:
Bacterial lipopolysaccharide (LPS) stimulates the production of a variety of cytokines, including TNF-alpha, from human PBMC; these cytokines in turn influence the development of T cells, supporting a T helper 1 conducive milieu. Human PBMC prepared from whole blood by buoyant density centrifugation were resuspended in CTCM. […] Following incubation for 24 h at 37° C. in 5% CO2-air, the cell culture supernatants were collected and tested for TNF-alpha levels by ‘sandwich’ ELISA. Briefly, 96-well Nunc MaxiSorp (Life Technologies, Paisley, UK) plates were coated with 50 μl of a 2 μg/ml solution of mouse anti-human TNF-alpha monoclonal antibody (Pharmingen, UK) in 0.05 M carbonate/bicarbonate buffer, pH 9.6 overnight at 4° C. After washing the plates three times with PBS-Tween, which contained phosphate buffered saline (PBS) with 0.5% (vol/vol) Tween 20 (Sigma, Poole, UK), the plates were blocked with 1% (wt/vol) bovine serum albumin (BSA) (Sigma, Poole, UK) at room temperature for 2 h. Following three washes with PBS-Tween, 50 μl of cell culture supernatants were added and incubated overnight at 4° C.; standard human TNF-alpha (Pharmingen, UK) ranging from 2000 to 31.25 pg/ml were included for each plate. After four washes with PBS-Tween, 50 μl of a second antibody, biotinylated mouse anti-human TNF-alpha monoclonal antibody (Pharmingen, UK) was added at 0.5 μg/1 ml diluted in 1% BSA in PBS-Tween and incubated at room temperature for 1 h. Following four washes, the bound biotinylated antibody was detected with 50 μl of a 1:1,000 dilution of Streptavidin-peroxidase (Pharmingen, UK). At the end of an hour incubation at room temperature, the plates were thoroughly washed six times with PBS-Tween and the assay was developed by the addition of 100 μl of 0.1 mg/ml of tetramethyl benzidine subtrate (Sigma, Poole, UK) in 0.1 M sodium acetate buffer, pH 6 containing 0.03% H2O2. The enzyme reaction was stopped with 50 μl of 2.5 M H2SO4 after an incubation of 10 minutes at room temperature and the development was read at 450 nm with a spectrophotometric 96-well plate reader (Dynex).

In another test the test system is human PBMC. As to the kind of experiment: ConA mitogen-stimulated proliferation of human PBMC ([3H]-thymidine incorporation). The class given is cell-based. The conditions noted are these: for pIC50: Experiment II, read-out: IC50 in inhibition of ConA induced cell proliferation of PBMC. The procedure:
Blood specimens were obtained with consent from healthy human volunteers. Human peripheral blood mononuclear cells (PBMC) were isolated from heparinised whole blood by buoyant density centrifugation over Histopaque 1077 (Sigma, Poole, UK) at 600 g for 20 minutes. PBMC harvested from the ‘buffy’ layers were washed twice with RPMI 1640 medium and resuspended in CTCM. […] Human PBMC were incubated for 48 h at 37° C. in 5% CO2-air, followed by pulsing with 0.25 μCi [^3H]-thymidine (see above). After a further incubation of 24 h cells were harvested onto fibreglass filters and then counted in the presence of MicroScint-O with the Packard TopCount.
Concanavalin induced cell proliferation of human peripheral blood mononuclear cells (PBMC) was tracked, as described in I above, by a measurement of counts per minute using the scintillation counter. The inhibitory effect of an HSL compound being tested on cell proliferation was indicated by a reduction in counts per minute. […] Columns B, C and D represent different sources of human PBMC samples used.
Plots of counts per minute (cpm) against the concentration of the quorum sensing molecules and the vehicle are shown in FIG. 11.

Molecules are shown by their SMILES. pIC50: −log10 of the molar value. Where two headings read alike, the source gives them in different places.

In the case of `O=C(CCCCCCCCCBr)CC(=O)N[C@H]1CCOC1=O` [Example 7, N-(12-Bromo-3-oxododecanoyl)-L-homoserine lactone], the pIC50 in the test on murine splenocytes was 5.22; in the test on TNF-alpha, 4.20; with human PBMC (human PBMC source B) it was 4.70; in the test with human PBMC (human PBMC source D), 5.15.
For the molecule `CCCCCCCCCCCC(=O)CC(=O)N[C@H]1CCOC1=O` [Example 11, N-(3-Oxotetradecanoyl)-L-homoserine lactone], the pIC50 with murine splenocytes was 5.22; with TNF-alpha it was 4.46; with human PBMC (human PBMC source B), 4.49; in the test with human PBMC (human PBMC source C), 4.92; in the test with human PBMC (human PBMC source D), 4.52. Also, in the test with TNF-alpha (LPS-stimulated human PBMC), the “inhibition of LPS induced TNF-α production by human PBMC, in words” value is reported as “inhibited the secretion”. Further, the “inhibition of ConA induced proliferation of human PBMC (cpm), in words” value with human PBMC (ConA 1 μg/ml) is “inhibited proliferation of human PBMC”.
